Experimental data reported in the supplement of paper PMC10307832.

How the values were obtained:
Test in all cases: relative viability (nuclei count vs DMSO), 5 days (fraction); higher = more cells survive
Doramapimod + Linsitinib = compound: Cc1ccc(-n2nc(C(C)(C)C)cc2NC(=O)Nc2ccc(OCCN3CCOCC3)c3ccccc23)cc1 [Doramapimod] + C[C@]1(O)C[C@@H](c2nc(-c3ccc4ccc(-c5ccccc5)nc4c3)c3c(N)nccn32)C1 [Linsitinib] (partner 1 µM)
Summary of the method: (§1)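 Lung cancer cell lines, seeded in 1536-well plates, were treated the following day by pin tool with a single drug or with five library-drug doses (not always all listed) in √10 steps on top of a fixed anchor-drug dose. Cells were fixed and nuclei stained in one step after 5 days, and nuclei were counted. Relative viability is the nuclei count for treated wells divided by that for vehicle wells, reported as medians of duplicate plates.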

RAF265 + Trametinib = compound: Cn1c(Nc2ccc(C(F)(F)F)cc2)nc2cc(Oc3ccnc(-c4ncc(C(F)(F)F)[nH]4)c3)ccc21 [RAF265] + CC(=O)Nc1cccc(-n2c(=O)n(C3CC3)c(=O)c3c(Nc4ccc(I)cc4F)n(C)c(=O)c(C)c32)c1 [Trametinib] (partner 0.02 µM)
Summary of the method: as §1

RAF265 + Bortezomib = compound: Cn1c(Nc2ccc(C(F)(F)F)cc2)nc2cc(Oc3ccnc(-c4ncc(C(F)(F)F)[nH]4)c3)ccc21 [RAF265] + CC(C)C[C@H](NC(=O)[C@H](Cc1ccccc1)NC(=O)c1cnccn1)B(O)O [Bortezomib] (partner 0.002 µM)
Summary of the method: as §1

RAF265 + Lapatinib = compound: Cn1c(Nc2ccc(C(F)(F)F)cc2)nc2cc(Oc3ccnc(-c4ncc(C(F)(F)F)[nH]4)c3)ccc21 [RAF265] + CS(=O)(=O)CCNCc1ccc(-c2ccc3ncnc(Nc4ccc(OCc5cccc(F)c5)c(Cl)c4)c3c2)o1 [Lapatinib] (partner 2 µM)
Summary of the method: as §1

Cell Line: UMC-11
- relative viability (Doramapimod + Linsitinib; first compound 0.02 µM): 0.946
- relative viability (Doramapimod + Linsitinib; first compound 0.06325 µM): 0.992
- relative viability (Doramapimod + Linsitinib; first compound 0.2 µM): 1.03
- relative viability (Doramapimod + Linsitinib; first compound 0.6325 µM): 1
- relative viability (Doramapimod + Linsitinib; first compound 2 µM): 0.718
- relative viability (RAF265 + Trametinib; first compound 0.01 µM): 0.749
- relative viability (RAF265 + Trametinib; first compound 0.03162 µM): 0.634
- relative viability (RAF265 + Trametinib; first compound 0.1 µM): 0.748
- relative viability (RAF265 + Trametinib; first compound 0.3162 µM): 0.855
- relative viability (RAF265 + Trametinib; first compound 1 µM): 0.649
- relative viability (RAF265 + Bortezomib; first compound 0.01 µM): 0.624
- relative viability (RAF265 + Bortezomib; first compound 0.03162 µM): 0.724
- relative viability (RAF265 + Bortezomib; first compound 0.1 µM): 0.758
- relative viability (RAF265 + Bortezomib; first compound 0.3162 µM): 0.745
- relative viability (RAF265 + Bortezomib; first compound 1 µM): 0.537
- relative viability (RAF265 + Lapatinib; first compound 0.01 µM): 0.97
- relative viability (RAF265 + Lapatinib; first compound 0.03162 µM): 0.859
- relative viability (RAF265 + Lapatinib; first compound 0.1 µM): 0.968
- relative viability (RAF265 + Lapatinib; first compound 0.3162 µM): 1.07
- relative viability (RAF265 + Lapatinib; first compound 1 µM): 0.776
